We go through five compounds from ChEMBL document CHEMBL2163249, “Exploration of natural compounds as sources of new bifunctional scaffolds targeting cholinesterases and beta amyloid aggregation: the case of chelerythrine” (Bioorg Med Chem, 2012).

In test [1] the target is Cholinesterase (Equus caballus, UniProt P81908). Nature of the test: Inhibition of horse BChE by Ellman's method. To be noted: read-out: IC50.
In test [2] the target is Cholinesterase (Homo sapiens, UniProt P06276). Nature of the test: Inhibition of human BChE by Ellman's method. Particulars: read-out: IC50.
Cholinesterase (Homo sapiens, UniProt P06276), sequence (P06276 whole entry): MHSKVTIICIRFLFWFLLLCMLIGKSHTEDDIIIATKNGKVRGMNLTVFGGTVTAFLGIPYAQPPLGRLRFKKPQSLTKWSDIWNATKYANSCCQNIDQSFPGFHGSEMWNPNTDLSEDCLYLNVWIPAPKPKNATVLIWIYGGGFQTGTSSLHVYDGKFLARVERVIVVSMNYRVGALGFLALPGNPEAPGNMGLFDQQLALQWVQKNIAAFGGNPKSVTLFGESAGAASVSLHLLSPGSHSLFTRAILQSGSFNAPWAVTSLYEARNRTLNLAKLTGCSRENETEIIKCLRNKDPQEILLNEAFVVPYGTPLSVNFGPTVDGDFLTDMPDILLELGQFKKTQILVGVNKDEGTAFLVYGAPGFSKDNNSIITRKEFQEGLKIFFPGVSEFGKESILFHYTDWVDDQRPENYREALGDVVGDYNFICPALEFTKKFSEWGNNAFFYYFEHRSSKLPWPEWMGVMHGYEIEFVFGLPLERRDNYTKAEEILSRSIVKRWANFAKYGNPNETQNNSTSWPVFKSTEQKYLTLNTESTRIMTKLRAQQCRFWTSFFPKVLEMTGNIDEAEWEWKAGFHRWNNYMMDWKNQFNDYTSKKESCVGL
In test [3] the target is T1, Acetylcholinesterase (Electrophorus electricus, UniProt O42275). In words: Inhibition of electric eel AChE by Ellman's method. Particulars: read-out: IC50.
T1 sequence (O42275 whole entry): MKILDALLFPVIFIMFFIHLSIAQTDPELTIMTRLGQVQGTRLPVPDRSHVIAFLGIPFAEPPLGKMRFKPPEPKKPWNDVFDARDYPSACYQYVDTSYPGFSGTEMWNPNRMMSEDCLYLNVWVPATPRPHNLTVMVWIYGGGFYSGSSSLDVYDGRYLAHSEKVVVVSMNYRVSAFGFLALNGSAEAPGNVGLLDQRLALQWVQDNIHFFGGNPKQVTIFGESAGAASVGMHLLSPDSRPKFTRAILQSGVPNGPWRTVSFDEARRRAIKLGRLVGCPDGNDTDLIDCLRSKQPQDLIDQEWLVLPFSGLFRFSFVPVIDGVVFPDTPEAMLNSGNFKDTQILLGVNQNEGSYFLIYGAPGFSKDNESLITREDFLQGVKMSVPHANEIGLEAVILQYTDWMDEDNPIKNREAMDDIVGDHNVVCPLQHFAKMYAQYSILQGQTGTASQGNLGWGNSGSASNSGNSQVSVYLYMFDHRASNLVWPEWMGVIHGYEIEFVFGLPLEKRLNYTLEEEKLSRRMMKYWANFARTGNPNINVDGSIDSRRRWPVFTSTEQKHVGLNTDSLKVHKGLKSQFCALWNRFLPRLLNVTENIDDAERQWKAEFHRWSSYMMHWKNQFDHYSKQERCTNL
Test [4] concerns the target T1, Acetylcholinesterase. In words: Competitive inhibition of electric eel AChE using acetyl thiocholine iodide as substrate by Lineweaver-Burk double-reciprocal analysis.
The target of test [5] is T1, Acetylcholinesterase. In words: Uncompetitive inhibition of electric eel AChE using acetyl thiocholine iodide as substrate by Lineweaver-Burk double-reciprocal analysis.
For test [6], the target named is T2, Acetylcholinesterase (Homo sapiens, UniProt P22303). Nature of the test: Competitive inhibition of human AChE using acetyl thiocholine iodide as substrate by Lineweaver-Burk double-reciprocal analysis.
T2 sequence (P22303 whole entry): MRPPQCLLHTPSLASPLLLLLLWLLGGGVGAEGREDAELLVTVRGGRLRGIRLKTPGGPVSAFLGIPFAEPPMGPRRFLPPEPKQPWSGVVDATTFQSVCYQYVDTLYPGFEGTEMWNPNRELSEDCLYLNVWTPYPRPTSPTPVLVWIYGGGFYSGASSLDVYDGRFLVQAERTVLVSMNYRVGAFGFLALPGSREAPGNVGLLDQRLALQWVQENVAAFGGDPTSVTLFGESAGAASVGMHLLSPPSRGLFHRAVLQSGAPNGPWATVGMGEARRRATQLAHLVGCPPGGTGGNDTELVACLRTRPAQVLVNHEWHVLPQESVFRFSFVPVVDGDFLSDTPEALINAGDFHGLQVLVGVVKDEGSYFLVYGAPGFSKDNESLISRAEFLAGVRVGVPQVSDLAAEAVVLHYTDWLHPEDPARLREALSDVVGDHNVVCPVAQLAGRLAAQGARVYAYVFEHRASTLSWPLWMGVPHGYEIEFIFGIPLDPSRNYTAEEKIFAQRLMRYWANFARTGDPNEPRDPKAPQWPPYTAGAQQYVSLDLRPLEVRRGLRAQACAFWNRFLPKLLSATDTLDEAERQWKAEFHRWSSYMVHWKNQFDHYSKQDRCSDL
Test [7] deals with T2, Acetylcholinesterase. In words: Uncompetitive inhibition of human AChE using acetyl thiocholine iodide as substrate by Lineweaver-Burk double-reciprocal analysis.
Test [8] is described as follows: Inhibition of HFIP-induced amyloid beta (1 to 40) aggregation after 45 mins by thioflavin T fluorescence method.
Test [9] can be described thus: Inhibition of HFIP-induced amyloid beta (1 to 40) aggregation at 10 uM after 45 mins by thioflavin T fluorescence method.
Test [10] can be described thus: Inhibition of amyloid beta (1 to 40) aggregation assessed as induction of disaggregation treated 45 mins after formation of aggregates by thioflavin T fluorescence method.
The target of test [11] is T2, Acetylcholinesterase.
Description: Inhibition of human AChE by Ellman's method
Test [12] addresses Acetylcholinesterase (Electrophorus electricus) (UniProt O42275). Particulars: at 2 mg/mL.
Description: Inhibition of electric eel AChE at 2 mg/ml by Ellman's method
The target in test [13] is Cholinesterase (Equus caballus) (UniProt P81908). Particulars: at 2 mg/mL.
Cholinesterase (Equus caballus), sequence (P81908 whole entry): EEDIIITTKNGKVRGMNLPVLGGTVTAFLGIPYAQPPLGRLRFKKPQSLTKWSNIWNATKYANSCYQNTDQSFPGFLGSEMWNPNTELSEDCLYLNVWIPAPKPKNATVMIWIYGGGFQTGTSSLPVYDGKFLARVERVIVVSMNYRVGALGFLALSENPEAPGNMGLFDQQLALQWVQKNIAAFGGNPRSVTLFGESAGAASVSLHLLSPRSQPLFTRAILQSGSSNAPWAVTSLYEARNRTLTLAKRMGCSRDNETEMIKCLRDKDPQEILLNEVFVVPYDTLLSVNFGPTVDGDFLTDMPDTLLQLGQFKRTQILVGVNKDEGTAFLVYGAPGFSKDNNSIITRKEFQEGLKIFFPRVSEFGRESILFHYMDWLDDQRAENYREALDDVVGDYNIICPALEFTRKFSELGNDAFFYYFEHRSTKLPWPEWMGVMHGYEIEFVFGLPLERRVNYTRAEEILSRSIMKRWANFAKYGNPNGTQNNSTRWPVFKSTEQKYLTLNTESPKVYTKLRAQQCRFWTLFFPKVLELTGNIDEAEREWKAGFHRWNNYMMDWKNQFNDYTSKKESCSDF
Description: Inhibition of horse BChE at 2 mg/ml by Ellman's method
A short description of test [14]: Inhibition of HFIP-induced amyloid beta (1 to 40) aggregation at 250 uM after 45 mins by thioflavin T fluorescence method.
Test [15] in a line: Inhibition of amyloid beta (1 to 40) aggregation assessed as induction of disaggregation at 10 uM treated 24 hrs after formation of aggregates by thioflavin T fluorescence method.
Test [16] can be described thus: Inhibition of amyloid beta (1 to 40) aggregation assessed as induction of disaggregation at 100 uM treated 24 hrs after formation of aggregates by thioflavin T fluorescence method.
The nature of test [17]: Inhibition of amyloid beta (1 to 42) aggregation.
Test [18] in a line: Inhibition of HFIP-induced amyloid beta (1 to 40) aggregation at 20 uM after 45 mins by thioflavin T fluorescence method.

The structures appear in SMILES notation.

Acetylcholinesterase (Electrophorus electricus), sequence (O42275 24-633 limits assumed): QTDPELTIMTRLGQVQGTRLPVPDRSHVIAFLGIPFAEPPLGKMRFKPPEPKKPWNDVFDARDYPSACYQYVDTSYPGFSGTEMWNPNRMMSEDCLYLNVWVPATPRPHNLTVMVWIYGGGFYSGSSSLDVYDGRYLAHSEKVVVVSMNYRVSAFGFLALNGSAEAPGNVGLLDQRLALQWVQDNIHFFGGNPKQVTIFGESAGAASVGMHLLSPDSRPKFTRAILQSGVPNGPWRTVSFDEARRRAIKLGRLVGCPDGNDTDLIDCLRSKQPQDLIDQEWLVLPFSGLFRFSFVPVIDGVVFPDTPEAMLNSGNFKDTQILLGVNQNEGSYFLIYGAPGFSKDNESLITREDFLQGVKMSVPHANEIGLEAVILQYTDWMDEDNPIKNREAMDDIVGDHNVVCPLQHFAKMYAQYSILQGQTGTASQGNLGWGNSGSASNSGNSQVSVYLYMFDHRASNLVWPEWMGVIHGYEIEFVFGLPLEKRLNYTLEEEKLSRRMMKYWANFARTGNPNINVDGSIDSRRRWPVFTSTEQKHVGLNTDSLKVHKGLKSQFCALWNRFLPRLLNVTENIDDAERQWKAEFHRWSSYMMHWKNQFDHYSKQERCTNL
Cholinesterase (Equus caballus, UniProt P81908), sequence (P81908 whole entry): as the sequence (P81908 whole entry) above

Turning to `COc1ccc2c(c[n+](C)c3c4cc5c(cc4ccc23)OCO5)c1OC` [CHELERYTHRINE CHLORIDE], the IC50 in test [1] turned out to be 6.33 µM; in test [2] it was 10.3 µM; in test [3] it was 3.78 µM; in test [8] it was 4.2 µM; in test [10], 13 µM; in test [11], 1.54 µM. The Ki came to 0.48 µM in test [4], 0.92 µM in test [5], 0.32 µM in test [6] and 1.12 µM in test [7]. The inhibition in test [9] worked out at 67%; in test [12] it was 75.9%; in [13] it was 83.5%.
For `Nc1ccc(O)cc1`, in test [14], the inhibition came to 64%.
`Oc1ccc(/C=C/c2cc(O)cc(O)c2)cc1` [RESVERATROL]: in test [10], the IC50 is 81.8 µM. For the same compound, the inhibition in test [15] turned out to be 71%; in test [16], 32%; in test [12], 15.1%; in test [13], 36.8%.
`Oc1cccc2[nH]ccc12` showed an IC50 in test [17] of 85 µM.
As for `COc1ccc2cc3[n+](cc2c1OC)CCc1cc2c(cc1-3)OCO2` [BERBERINE CHLORIDE], the IC50 in test [3] came out at 2.74 µM; in test [8] it was 43.8 µM; in [10] it was 106 µM. Besides, the inhibition in test [18] is 36%; in [12], 79%.
